Experimental data published in patent publication US6682897B1, “Peptides derived from human heat protein 60 for treatment of diabetes, compositions, methods and kits” (Yeda Research and Development Co. Ltd., priority 1995, dated 2004).
Values joined by “and” are separate entries in the source; they are usually repeats but may differ in a detail not shown here. Equal entries are not always repeated. “Also recorded” adds a separate entry of the source. Marks after values point to notes of the source that are not given here.

Assays:
female NOD mice = test: Peptide treatment of 10-week old NOD mice, development of diabetes (Example 4, FIG. 4); format: in vivo; details: single s.c. injection in IFA at 10 weeks, observed through 8 months of age, vs IFA alone
Description: FIG. 4 is a graph showing the effect of peptide administration on diabetes. Groups of 10-20 NOD mice were treated at 10 weeks of age with 100 μg of mouse p12, p277, p35-GAD or MT-p278 in IFA, or IFA alone. The mice were bled monthly and followed for the onset of hyperglycemia.
(§1) (iv) Treatment and follow-up. Peptides, […], in PBS, were emulsified with an equal volume of IFA and injected subcutaneously into 10-week-old NOD females as described (Elias and Cohen, 1995). Control mice received an equal volume of PBS emulsified in IFA. The mice were monitored monthly for non-fasting blood glucose at 10am using the Blood Glucose Sensor (MediSense. Inc., Waltham, Mass.). Mice with a blood glucose greater than 11.1 mmol/L were considered to be diabetic; this concentration of glucose was greater than 3 standard deviations above the mean blood glucose concentration measured in non-diabetic mice (Elias and Cohen, 1995). Histological examination of the islets of the pancreas was done on sections stained with hematoxylin and eosin. The sections were scored independently by two observers who both were unaware of the identity of the groups. The chi square test was used to ascertain the statistical differences between the various treatments.
Following a protocol shown to be effective with mouse p277(Elias et al., 1991; Elias and Cohen, 1994; Elias and Cohen, 1995), groups of 10-week old female NOD mice were treatedby a single subcutaneous injection of each peptide ([…]) emulsified in IFA.

draining lymph nodes = test: T-cell proliferative responses of NOD mice to peptides (Example 4, FIG. 3); format: cell-based; details: NOD mice immunized with 25 μg peptide in IFA, lymph nodes 10 days later, 20 μg/ml
Description: FIG. 3 is a graph showing T-cell proliferative responses of NOD mice to peptides. Groups of three NOD mice were […] with peptides mouse p12, mouse p277, GAD-p35 and MT-p278 in IFA each at a dose of 25 μg in IFA. The draining lymph nodes were removed 10 days later and assayed for proliferative responses to the corresponding peptide at the concentrations of 5, 10, 20, and 50 μg/ml. The stimulation at the optimal concentration of 20 μg/ml is shown. The following ranges of cpm were obtained in medium controls: mouse p12, 881; mouse p277, 1243; MT-p278, 698 and GAD-p35 1430. Peptide mouse p38 is a peptide derived from mouse hsp60 (556-573), which has no sequence homology with the tested peptides and serves as a negative control of specificity. […] Each assay was done in triplicates for which the SD values are indicated by the bars. There was no cross-reactivity between the peptides (not shown).
(§2) (iii) T-Cell proliferation to peptides. Mice. Nine week old NOD mice or mice of other strains were immunized in the hind foot pads with 0.1 ml of an emulsion containing 25 μg peptide in complete Freund's adjuvant (CFA; Difco, Detroit, Mich.) mixed with an equal volume of phosphate-buffered saline (PBS). The draining popliteal lymph nodes were removed 10 days later and suspensions of lymphocytes in triplicate cultures were tested for proliferation in the presence of the various peptides (5 μg/ml) using the incorporation of [^3H]-thymidine as described (Elias et al., 1991). The results are shown as the stimulation index (SI): the ratio of the mean cpm in the presence of the test peptide to the mean cpm of control cultures without the peptide. Standard errors were always less than 10% of the means.
Spontaneous T cell responses in pre-diabetic NOD mice were detected to the mouse p277 peptide (Elias et al., 1991; Birk et al., 1996) and to larger fragments of the mouse hsp60 molecule that contained the mouse p277 sequence (Birk et al., 1996). […] Other peptides immunogenic for NOD mice are the MT-p278 peptide (residues 458-474 in the Mycobacterial hsp60 molecule), and GAD-p35 (residues 524-543 in the GAD65 molecule).

[1] = system: spleens of female NOD mice; test: Spontaneous T-cell responses in spleens of female NOD mice (longitudinal study); format: cell-based; details: female NOD mice at ages 3-16 weeks
[2] = system: serum antibodies of the IgG1, IgG2a and IgG2b isotypes; test: Serum anti-peptide antibody isotypes by ELISA in peptide-treated NOD mice (FIG. 5); format: in vivo; details: for antibody titers of the IgG1 and IgG2b isotypes: peptide-treated NOD mice, sera diluted 1:50, ELISA
Description: FIGS. 5A-5D show the IgG1, IgG2a and IgG2b antibody isotypes in response to peptide treatment. Mice were treated as described in the legend to FIG. 4. Individual samples were analyzed for antibodies to mouse p12 A; p277 B; GAD-p35 C; and MT-p278 D, of the IgG1, IgG2a and IgG2b isotypes. Similar effects were obtained in two experiments. The results are presented as the absorbance at 405 nm (OD) of 10 individual mice in each group. The level of significance of the prevalence of IgG1 and IgG2b antibodies in groups A and B compared to C and D is P<0.001. The differences between the levels of IgG1 and IgG2b antibodies compared to the IgG2a antibodies in groups A and B were significant (P<0.001). There was no cross-reactivity between the antibodies (not shown).
(v) Serum Antibodies. Mice were bled monthly to detect antibody responses. The ELISA assay was done as described (Elias et al., 1991). Briefly, flat bottom Maxi-sorb plates (Nunc, Roskilde, Denmark) were coated, for the detection of anti-peptide antibodies, with […] of peptide in PBS, at a concentration of […] for 2 h at room temperature followed by over night incubation at 4° C. After incubation with peptide, the plates were washed and blocked for 2 h at 37° C. with 7% BSA (Sigma) in PBS. Sera were diluted 1:50 then added for 2 h at 37° C., followed by incubation for 2 h with […] of goat anti-mouse IgG (gamma chain Fc specific) conjugated to alkaline phosphatase (Jackson, Philadelphia, Pa.). After washing, the plates were incubated with the substrate, diethanolamine (Sigma) and read using an ELISA reader at 405 nm.
Successful treatment of STZ-induced diabetes with mouse peptide p277 was associated with the appearance of anti-peptide antibodies predominantly of the IgG1 and IgG2b isotypes (Elias and Cohen, 1996). The peptide-treated NOD mice for their serum antibodies was therefore examined. […] Thus, effectiveness in inhibiting diabetes was associated with the induction of an antibody response mainly of the IgG1 and IgG2b isotypes.

[3] = system: draining popliteal lymph node lymphocytes; test: T-cell proliferation of draining lymph node cells of NOD mice immunized with hsp60 peptides in CFA (Example 1, FIG. 2); format: cell-based; details: NOD mice immunized with peptide emulsified in CFA in hind foot pads, assayed after 10 days
Description: as §2, with “1991).” for “1991). The results are shown as the stimulation index (SI): the ratio of the mean cpm in the presence of the test peptide to the mean cpm of control cultures without the peptide. Standard errors were always less than 10% of the means.”
The immunogenicity of the hsp60 peptides p12, p32, p277(Val^6-Val^11) and p278 in NOD mice was tested by immunizing the mice with the peptides emulsified in CFA in the hind foot pads, and assaying the proliferative responses of draining lymph node cells after 10 days as described above in section iii(a).

NOD/Lt female mice = test: Treatment of NOD mice with peptides in IFA: diabetes and mortality (Example 2); format: in vivo; details: 100 μg peptide in IFA s.c., nine-week old NOD/Lt females; for Diabetes (%): persistent blood glucose over 11.1 mmol/l at 25 weeks of age
Description: as §1, with “Mice with a blood glucose greater than 11.1 mmol/L were considered to be diabetic; this concentration of glucose was greater than 3 standard deviations above the mean blood glucose concentration measured in non-diabetic mice (Elias and Cohen, 1995).” left out
To test whether the p12 and p32 peptides can block the progression of diabetes as p277(Val^6-Val^11), the p277(Val6-Val^11), p12 or p32 peptides (100 μg in a 0.1 cc emulsion of IFA) were administered subcutaneously to groups of 10-12 nine-week old NOD/Lt female mice of the Jackson Laboratory, Bar-Harbor, Me. Diabetes, determined as persistent blood glucose levels over 11.1 mmol/l, was tested at 25 weeks of age. Control mice were untreated or were treated with p278.

[4] = system: Peripheral mononuclear cells (PBMC) of IDDM patients; test: T-cell proliferative response of PBMC from newly diagnosed IDDM patients (Example 3); format: cell-based, human; details: for T-cell proliferative response (SI): antigen 10 μg/ml, 6 days, SI more than 2.0 positive
Description: To determine the T-cell responses to the various hsp60 peptides, lymphocytes from the peripheral blood of newly diagnosed (2 weeks-4 months) IDDM patients were tested in a proliferation assay. 10-20 ml of blood were removed into a sterile tube containing heparin as anti-coagulant and diluted in PBS 1:2. Peripheral mononuclear cells (PBMC) were isolated by centrifuging the blood over a lymphoprep layer. The PBMC were tested for proliferation in triplicates, in the presence of the various antigens (10 μg/ml) for 6 days using the incorporation of [^3H]-thymidine as a measure of proliferation. The antigens tested were human hsp60 or the hsp60 peptides p277(Val^6-Val^11), p12, p32 and control peptide p278. The T cell proliferative response is depicted as stimulation index (SI): The ratio between peptide-stimulated thymidine incorporation and background (no antigen added) thymidine incorporation by the T cells.

[5] = compared with p277; cited from earlier work

EEIAQVATISANGDKDIGNI [mouse p12]
development of diabetes (female NOD mice): significantly protected; also recorded: effective in inhibiting the development of diabetes | immunogenicity (T-cell proliferative response) (draining lymph nodes): strong response | spontaneous T-cell responses [1]: no spontaneous responses | antibody titers of the IgG1 and IgG2b isotypes [2]: effective in inducing strong antibody titers

EEIAQVATISANGDKEIGNI [p12]
immunogenicity (proliferative responses of draining lymph node cells) [3]: strongly immunogenic | Mortality (%) (NOD/Lt female mice): 10* % | therapeutic effect in treatment of diabetes (NOD/Lt female mice): effective in treatment of diabetes | Diabetes (%) (NOD/Lt female mice): 20%

EIIKRTLKIPAMTIAKNAGV [p32]
immunogenicity (proliferative responses of draining lymph node cells) [3]: strongly immunogenic | Mortality (%) (NOD/Lt female mice): 25* % | therapeutic effect in treatment of diabetes (NOD/Lt female mice): effective in treatment of diabetes | Diabetes (%) (NOD/Lt female mice): 30% and 50* %

NEDQKIGIEIIKRTLKI [p278, human hsp60 residues 458-474; control peptide]
immunogenicity (proliferative responses of draining lymph node cells) [3]: non-immunogenic | Mortality (%) (NOD/Lt female mice): 45% | therapeutic effect in treatment of diabetes (NOD/Lt female mice): no therapeutic effect | Diabetes (%) (NOD/Lt female mice): 90% | T-cell proliferative response (SI) ([4]; Patient 1): 0.5 | T-cell proliferative response (SI) ([4]; Patient 2): 0.8 | T-cell proliferative response (SI) ([4]; Patient 3): 0.7 | T-cell proliferative response (SI) ([4]; Patient 4): 0.9

SRLSKVAPVIKARMMEYGTT [GAD-p35, peptide from the GAD65 molecule (524-543)]
development of diabetes (female NOD mice): no different than was treatment with IFA alone | immunogenicity (T-cell proliferative response) (draining lymph nodes): immunogenic, but less so | mice that made specific IgG1 antibodies ([2]; 10 individual mice per group, ELISA): none | titers of IgG2b antibodies ([2]; compared with mouse p12 and mouse p277 groups): significantly lower titers | antibody titers of the IgG1 and IgG2b isotypes [2]: did not respond as strongly

hsp60: human 60 KDa heat shock protein (SEQ ID NO:1)
T-cell proliferative response (SI) ([4]; Patient 1): 5.6 | T-cell proliferative response (SI) ([4]; Patient 2): 7.5 | T-cell proliferative response (SI) ([4]; Patient 3): 8.0 | T-cell proliferative response (SI) ([4]; Patient 4): 3.4 | T-cell proliferative response (SI) ([4]; Patient 5): 1.2 | T-cell proliferative response (SI) ([4]; Patient 6): 6.7 | T-cell proliferative response (SI) ([4]; Patient 7): 10.3 | T-cell proliferative response (SI) ([4]; Patient 8): 1.3 | patients that responded ([4]; of 8 newly diagnosed IDDM patients, SI more than 2.0): 6/8

p277(Val^6): p277 variant with cysteine at position 6 replaced by valine (VLGGGVALLRCIPALDSLTPANED; p277 peptide (437-460); UniProt P10809 437-460, looked up, variant C442V)
activity in the treatment of diabetes [5]: as active as p277

p277(Val^11): p277 variant with cysteine at position 11 replaced by valine (VLGGGCALLRVIPALDSLTPANED; p277 peptide (437-460); UniProt P10809 437-460, looked up, variant C447V)
activity in the treatment of diabetes [5]: as active as p277
